Measured values as given in patent US9266878B2, “Phosphatidylinositol 3-kinase inhibitors” (Gilead Calistoga LLC, priority 2012, dated 2016).

Experiments:
Experiment in all cases: Enzymatic activity of PI3K isoforms, TR-FRET assay (PIP3 formation)
Assay type in all cases: biochemical
PI3Kγ = PI3Kγ (Homo sapiens (Human), UniProt P48736)
Procedure: (§1) Enzymatic activity of the class I PI3K isoforms was measured using a time-resolved fluorescence resonance energy transfer (TR-FRET) assay that monitors formation of the product 3,4,5-inositol triphosphate molecule (PIP3), as it competes with fluorescently labeled PIP3 for binding to the GRP-1 pleckstrin homology domain protein. An increase in […] product results in a decrease in TR-FRET signal as the labeled fluorophore is displaced from the GRP-1 protein binding site.
(§2) Class I PI3K isoforms were expressed and purified as heterodimeric recombinant proteins. All assay reagents and buffers for the TR-FRET assay were purchased from Millipore.
(§3) IC50 are reported in units of nM.

PI3Kα = PI3Kα (Homo sapiens (Human), UniProt P42336); settings: bound given in uM
Chain of PI3Kα (P42336 whole entry): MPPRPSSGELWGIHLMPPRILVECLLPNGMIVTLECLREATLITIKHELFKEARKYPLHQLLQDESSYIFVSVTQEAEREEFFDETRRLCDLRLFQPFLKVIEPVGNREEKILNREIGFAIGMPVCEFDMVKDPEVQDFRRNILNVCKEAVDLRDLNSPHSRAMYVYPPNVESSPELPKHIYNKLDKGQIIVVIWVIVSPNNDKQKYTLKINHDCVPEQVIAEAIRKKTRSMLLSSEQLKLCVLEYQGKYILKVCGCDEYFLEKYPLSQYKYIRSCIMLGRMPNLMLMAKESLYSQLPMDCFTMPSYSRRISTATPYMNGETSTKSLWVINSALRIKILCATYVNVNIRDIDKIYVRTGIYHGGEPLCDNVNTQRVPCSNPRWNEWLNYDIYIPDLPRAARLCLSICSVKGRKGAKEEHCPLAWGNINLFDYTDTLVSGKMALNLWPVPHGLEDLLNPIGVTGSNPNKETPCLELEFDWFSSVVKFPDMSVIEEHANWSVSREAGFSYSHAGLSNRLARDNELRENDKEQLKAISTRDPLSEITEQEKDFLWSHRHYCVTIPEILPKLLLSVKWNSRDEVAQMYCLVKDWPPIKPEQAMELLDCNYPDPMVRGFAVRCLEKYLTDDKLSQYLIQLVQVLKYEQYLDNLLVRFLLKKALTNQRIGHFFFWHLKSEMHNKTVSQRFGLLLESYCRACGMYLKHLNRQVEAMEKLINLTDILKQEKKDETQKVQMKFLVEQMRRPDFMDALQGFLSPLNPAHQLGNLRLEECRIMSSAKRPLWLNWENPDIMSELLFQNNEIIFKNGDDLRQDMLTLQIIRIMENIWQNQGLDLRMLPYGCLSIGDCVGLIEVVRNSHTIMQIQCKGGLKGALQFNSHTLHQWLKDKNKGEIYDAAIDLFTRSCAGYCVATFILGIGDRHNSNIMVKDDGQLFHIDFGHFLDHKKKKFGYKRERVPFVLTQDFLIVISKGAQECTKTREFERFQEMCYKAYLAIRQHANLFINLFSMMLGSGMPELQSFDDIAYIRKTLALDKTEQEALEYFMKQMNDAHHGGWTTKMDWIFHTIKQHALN
Chain of PI3Kα (P27986 whole entry partner): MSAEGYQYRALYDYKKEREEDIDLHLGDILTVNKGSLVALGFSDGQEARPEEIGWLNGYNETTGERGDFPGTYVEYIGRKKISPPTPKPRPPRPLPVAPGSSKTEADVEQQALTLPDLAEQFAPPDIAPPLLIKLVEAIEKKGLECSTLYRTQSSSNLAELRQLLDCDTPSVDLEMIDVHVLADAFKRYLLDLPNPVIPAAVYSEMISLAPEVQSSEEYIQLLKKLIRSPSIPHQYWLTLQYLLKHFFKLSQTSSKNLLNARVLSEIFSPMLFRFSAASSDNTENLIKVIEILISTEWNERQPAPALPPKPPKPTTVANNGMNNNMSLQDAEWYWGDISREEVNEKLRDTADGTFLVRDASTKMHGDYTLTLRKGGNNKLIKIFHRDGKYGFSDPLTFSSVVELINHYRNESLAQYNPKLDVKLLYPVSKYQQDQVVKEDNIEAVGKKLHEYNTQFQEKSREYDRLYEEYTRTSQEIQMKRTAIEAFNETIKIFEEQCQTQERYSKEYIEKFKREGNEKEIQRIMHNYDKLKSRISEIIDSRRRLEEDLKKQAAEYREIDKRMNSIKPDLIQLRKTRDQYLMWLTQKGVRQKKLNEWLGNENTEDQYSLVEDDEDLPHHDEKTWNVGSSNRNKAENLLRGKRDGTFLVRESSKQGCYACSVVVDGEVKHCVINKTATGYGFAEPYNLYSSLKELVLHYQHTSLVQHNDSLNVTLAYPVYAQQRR
Procedure: as §1
(§4) Class I PI3K isoforms were expressed and purified as heterodimeric recombinant proteins. All assay reagents and buffers for the TR-FRET assay were purchased from Millipore. […] After an assay reaction time of 30 minutes at 25° C., reactions were terminated with a final concentration of 10 mM EDTA, 10 nM labeled-PIP3, and 35 nM Europium labeled GRP-1 detector protein before reading TR-FRET on an Envision plate reader (Ex: 340 nm; Em: 615/665 nm; 100 μs delay and 500 μs read window).
(§5) IC50 are reported in units of nM. These assays generally produced results within 3-fold of the reported mean.

PI3Kδ = PI3Kδ (Homo sapiens (Human), UniProt O00329); settings: bound given in nM
Chain of PI3Kδ (O00329 whole entry): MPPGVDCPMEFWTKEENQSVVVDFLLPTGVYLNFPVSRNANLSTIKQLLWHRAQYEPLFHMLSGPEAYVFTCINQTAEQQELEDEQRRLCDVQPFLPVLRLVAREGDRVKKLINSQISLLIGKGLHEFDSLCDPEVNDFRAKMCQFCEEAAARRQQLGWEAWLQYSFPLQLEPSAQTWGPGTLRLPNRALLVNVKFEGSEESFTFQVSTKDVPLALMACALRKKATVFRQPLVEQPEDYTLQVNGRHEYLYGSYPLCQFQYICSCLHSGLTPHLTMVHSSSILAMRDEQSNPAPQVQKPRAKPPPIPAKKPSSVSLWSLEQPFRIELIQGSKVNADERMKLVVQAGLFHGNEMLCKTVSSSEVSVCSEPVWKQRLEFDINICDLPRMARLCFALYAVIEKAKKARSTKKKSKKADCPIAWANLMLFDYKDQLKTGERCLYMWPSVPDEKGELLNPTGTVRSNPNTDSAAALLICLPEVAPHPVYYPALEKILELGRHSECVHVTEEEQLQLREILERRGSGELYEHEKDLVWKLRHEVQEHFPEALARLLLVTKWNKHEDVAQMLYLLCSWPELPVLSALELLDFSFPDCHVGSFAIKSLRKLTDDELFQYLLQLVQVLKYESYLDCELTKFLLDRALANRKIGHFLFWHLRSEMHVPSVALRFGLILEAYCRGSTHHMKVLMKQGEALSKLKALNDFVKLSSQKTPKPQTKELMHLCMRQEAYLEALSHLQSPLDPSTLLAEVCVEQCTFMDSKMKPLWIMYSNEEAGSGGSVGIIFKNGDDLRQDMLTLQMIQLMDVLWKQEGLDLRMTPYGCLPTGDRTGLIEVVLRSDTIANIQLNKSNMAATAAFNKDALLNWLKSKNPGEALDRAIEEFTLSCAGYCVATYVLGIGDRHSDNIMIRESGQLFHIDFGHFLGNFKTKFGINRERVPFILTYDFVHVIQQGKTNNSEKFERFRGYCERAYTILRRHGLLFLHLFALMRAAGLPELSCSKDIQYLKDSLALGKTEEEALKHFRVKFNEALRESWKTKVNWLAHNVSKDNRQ
Chain of PI3Kδ (P27986 whole entry partner): as the sequence (P27986 whole entry partner) above
Procedure: as §1, §4, §5

PI3Kβ = PI3Kβ (Homo sapiens (Human), UniProt P42338); settings: bound given in nM
Procedure: as §1, §2, §3

Chain of PI3Kγ (P48736 whole entry, the tested form may be a part, canonical isoform): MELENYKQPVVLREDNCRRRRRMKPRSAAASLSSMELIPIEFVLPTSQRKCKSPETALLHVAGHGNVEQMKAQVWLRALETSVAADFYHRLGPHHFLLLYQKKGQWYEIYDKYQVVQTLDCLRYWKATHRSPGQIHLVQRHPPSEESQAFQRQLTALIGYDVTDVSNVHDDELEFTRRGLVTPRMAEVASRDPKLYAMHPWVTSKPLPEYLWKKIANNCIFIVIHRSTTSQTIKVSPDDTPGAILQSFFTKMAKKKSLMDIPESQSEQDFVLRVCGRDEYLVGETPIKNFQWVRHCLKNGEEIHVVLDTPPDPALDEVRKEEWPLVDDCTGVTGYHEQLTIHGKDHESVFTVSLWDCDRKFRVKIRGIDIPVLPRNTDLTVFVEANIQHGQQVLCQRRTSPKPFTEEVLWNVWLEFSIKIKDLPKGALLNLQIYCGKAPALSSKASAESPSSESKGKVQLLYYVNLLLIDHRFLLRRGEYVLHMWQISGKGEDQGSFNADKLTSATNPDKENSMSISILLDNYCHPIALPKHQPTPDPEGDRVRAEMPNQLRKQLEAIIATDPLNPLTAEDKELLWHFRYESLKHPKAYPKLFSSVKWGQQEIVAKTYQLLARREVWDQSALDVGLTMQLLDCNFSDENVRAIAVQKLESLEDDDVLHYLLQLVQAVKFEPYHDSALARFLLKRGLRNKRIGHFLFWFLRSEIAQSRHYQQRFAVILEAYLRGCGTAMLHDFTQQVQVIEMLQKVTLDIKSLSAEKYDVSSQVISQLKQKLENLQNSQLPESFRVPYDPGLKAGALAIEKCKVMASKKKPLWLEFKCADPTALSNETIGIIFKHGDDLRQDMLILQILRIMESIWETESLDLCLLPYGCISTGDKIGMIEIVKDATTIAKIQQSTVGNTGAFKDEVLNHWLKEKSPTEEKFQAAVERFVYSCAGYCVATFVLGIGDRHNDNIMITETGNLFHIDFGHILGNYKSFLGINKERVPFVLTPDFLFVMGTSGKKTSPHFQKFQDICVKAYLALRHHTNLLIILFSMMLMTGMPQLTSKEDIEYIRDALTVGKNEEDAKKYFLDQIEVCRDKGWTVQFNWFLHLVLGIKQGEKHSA
Chain of PI3Kγ (Q8WYR1 whole entry partner, the tested form may be a part, canonical isoform): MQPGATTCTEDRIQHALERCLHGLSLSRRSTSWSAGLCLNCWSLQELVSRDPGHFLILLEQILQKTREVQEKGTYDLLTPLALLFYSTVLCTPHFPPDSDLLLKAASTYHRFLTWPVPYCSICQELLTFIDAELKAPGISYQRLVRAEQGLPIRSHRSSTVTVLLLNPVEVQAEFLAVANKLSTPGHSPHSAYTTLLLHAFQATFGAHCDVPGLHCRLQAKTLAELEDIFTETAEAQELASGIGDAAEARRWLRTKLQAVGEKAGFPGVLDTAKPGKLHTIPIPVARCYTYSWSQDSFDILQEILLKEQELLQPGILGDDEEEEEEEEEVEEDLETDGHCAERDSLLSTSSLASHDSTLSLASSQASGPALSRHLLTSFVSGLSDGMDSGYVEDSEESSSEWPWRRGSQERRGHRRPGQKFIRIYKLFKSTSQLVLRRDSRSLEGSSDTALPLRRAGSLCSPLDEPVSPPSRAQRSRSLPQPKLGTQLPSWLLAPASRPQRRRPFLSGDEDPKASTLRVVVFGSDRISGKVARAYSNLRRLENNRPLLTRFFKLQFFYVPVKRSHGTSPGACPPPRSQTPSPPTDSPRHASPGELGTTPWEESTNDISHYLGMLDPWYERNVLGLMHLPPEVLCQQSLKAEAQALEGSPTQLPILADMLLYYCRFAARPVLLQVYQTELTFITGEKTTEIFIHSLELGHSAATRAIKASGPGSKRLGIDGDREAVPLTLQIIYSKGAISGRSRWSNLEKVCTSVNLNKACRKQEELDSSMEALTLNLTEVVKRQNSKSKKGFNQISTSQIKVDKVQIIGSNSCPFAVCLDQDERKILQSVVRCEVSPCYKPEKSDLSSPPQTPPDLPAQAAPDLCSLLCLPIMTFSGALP

`C[C@H](Nc1ncnc(N)c1C#Cc1cnccn1)c1nc2ccc(F)cc2c(=O)n1-c1ccccc1` [Compound 91a, (S)-2-(1-((6-amino-5-(pyrazin-2-ylethynyl)pyrimidin-4-yl)amino)ethyl)-6-fluoro-3-phenylquinazolin-4(3H)-one] was tested, and the IC50 (PI3Kγ; bound given in uM) was greater than 1 µM, the IC50 (PI3Kα) was greater than 1 µM and the IC50 (PI3Kδ) was less than 100 nM.
`Cc1cccc2nc([C@H](C)Nc3ncnc(N)c3C#Cc3ccccn3)n(-c3ccccc3)c(=O)c12` [Compound 30a, (S)-2-(1-(6-amino-5-(pyridin-2-ylethynyl)pyrimidin-4-ylamino)ethyl)-5-methyl-3-phenylquinazolin-4(3H)-one] gave an IC50 (PI3Kβ) of less than 100 nM and an IC50 (PI3Kδ) of less than 100 nM.
`C[C@H](Nc1ncnc(N)c1C#Cc1cc(C(N)=O)ccn1)c1nc2cccc(Cl)c2c(=O)n1-c1ccccc1` [Compound 156a, (S)-2-((4-amino-6-((1-(5-chloro-4-oxo-3-phenyl-3,4-dihydroquinazolin-2-yl)ethyl)amino)pyrimidin-5-yl)ethynyl)isonicotinamide] showed an IC50 (PI3Kβ) of less than 100 nM and an IC50 (PI3Kδ) of less than 100 nM.
Work on `Cc1ccc(F)c2nc([C@H](C)Nc3ncnc(N)c3C#Cc3cnccn3)n(-c3cccc(C#N)c3)c(=O)c12` [Compound 73a, (S)-3-(2-(1-((6-amino-5-(pyrazin-2-ylethynyl)pyrimidin-4-yl)amino)ethyl)-8-fluoro-5-methyl-4-oxoquinazolin-3(4H)-yl)benzonitrile] yielded an IC50 (PI3Kγ; bound given in uM) greater than 1 µM, an IC50 (PI3Kα) greater than 1 µM and an IC50 (PI3Kδ) of less than 100 nM.
In the case of `COc1cc(F)cc(C#Cc2c(N)ncnc2N[C@@H](C)c2nc3cccc(Cl)c3c(=O)n2N2CCOCC2)c1` [Compound 122a, (S)-2-(1-((6-amino-5-((3-fluoro-5-methoxyphenyl)ethynyl)pyrimidin-4-yl)amino)ethyl)-5-chloro-3-morpholinoquinazolin-4(3H)-one], the IC50 (PI3Kγ; bound given in uM) is reported as greater than 1 µM, the IC50 (PI3Kα) is reported as greater than 1 µM and the IC50 (PI3Kδ) is reported as less than 100 nM.
For `C[C@H](Nc1ncnc(N)c1C#Cc1cccc(CO)c1)c1nc2cccc(Cl)c2c(=O)n1-c1ccccc1` [Compound 162a, (S)-2-(1-((6-amino-5-((3-(hydroxymethyl)phenyl)ethynyl)pyrimidin-4-yl)amino)ethyl)-5-chloro-3-phenylquinazolin-4(3H)-one], the IC50 (PI3Kγ; bound given in uM) was greater than 1 µM, the IC50 (PI3Kα) was greater than 1 µM and the IC50 (PI3Kδ) was less than 100 nM.
`Cc1ccc(C#Cc2c(N)ncnc2N[C@@H](C)c2nc3cccc(Cl)c3c(=O)n2-c2ccccc2)nc1` [Compound 133a, (S)-2-(1-((6-amino-5-((5-methylpyridin-2-yl)ethynyl)pyrimidin-4-yl)amino)ethyl)-5-chloro-3-phenylquinazolin-4(3H)-one] gave an IC50 (PI3Kγ; bound given in nM) of less than 0.1 µM, an IC50 (PI3Kα) greater than 1 µM and an IC50 (PI3Kδ) of less than 100 nM.
Work on `C[C@H](Nc1ncnc(N)c1C#Cc1ccc(C(N)=O)cn1)c1nc2cccc(Cl)c2c(=O)n1-c1ccccc1` [Compound 135a, (S)-6-((4-amino-6-((1-(5-chloro-4-oxo-3-phenyl-3,4-dihydroquinazolin-2-yl)ethyl)amino)pyrimidin-5-yl)ethynyl)nicotinamide] yielded an IC50 (PI3Kγ; bound given in nM) of less than 0.1 µM, an IC50 (PI3Kα) greater than 1 µM and an IC50 (PI3Kδ) of less than 100 nM.
`Nc1ncnc(N[C@H](CO)c2nc3cccc(Cl)c3c(=O)n2-c2ccccc2)c1C#Cc1ccc(F)cn1` [139b] showed an IC50 (PI3Kγ; bound given in uM) greater than 1 µM, an IC50 (PI3Kα) greater than 1 µM and an IC50 (PI3Kδ) of less than 100 nM.
`C[C@H](Nc1ncnc(N)c1C#Cc1cnccn1)c1nc2cccc(F)c2c(=O)n1-c1ccccc1` [Compound 86a, (S)-2-(1-((6-amino-5-(pyrazin-2-ylethynyl)pyrimidin-4-yl)amino)ethyl)-5-fluoro-3-phenylquinazolin-4(3H)-one] showed an IC50 (PI3Kγ; bound given in uM) greater than 1 µM, an IC50 (PI3Kα) greater than 1 µM and an IC50 (PI3Kδ) of less than 100 nM.
Compound `Cc1nc(C#Cc2c(N)ncnc2N[C@@H](C)c2nc3cccc(Cl)c3c(=O)n2-c2ccccc2)ccc1F` [Compound 140a, (S)-2-(1-((6-amino-5-((5-fluoro-6-methylpyridin-2-yl)ethynyl)pyrimidin-4-yl)amino)ethyl)-5-chloro-3-phenylquinazolin-4(3H)-one] has an IC50 (PI3Kγ; bound given in uM) greater than 1 µM, an IC50 (PI3Kα) greater than 1 µM and an IC50 (PI3Kδ) of less than 100 nM.
Compound `C[C@H](Nc1ncnc(N)c1C#Cc1ccc(F)cn1)c1nc2c(F)cccc2c(=O)n1-c1ccccc1` [Compound 13a, (S)-2-(1-(6-amino-5-((5-fluoropyridin-2-yl)ethynyl)pyrimidin-4-ylamino)ethyl)-8-fluoro-3-phenylquinazolin-4(3H)-one] has an IC50 (PI3Kγ; bound given in uM) greater than 1 µM, an IC50 (PI3Kα) greater than 1 µM and an IC50 (PI3Kδ) of less than 100 nM.
`Cc1cccc2nc([C@H](C)Nc3ncnc(N)c3C#Cc3cnccn3)n(-c3cccc(F)c3)c(=O)c12` [Compound 106a, (S)-2-(1-((6-amino-5-(pyrazin-2-ylethynyl)pyrimidin-4-yl)amino)ethyl)-3-(3-fluorophenyl)-5-methylquinazolin-4(3H)-one] was tested, and the IC50 (PI3Kγ; bound given in uM) was greater than 1 µM, the IC50 (PI3Kα) was greater than 1 µM and the IC50 (PI3Kδ) was less than 100 nM.
Compound `CCc1ccnc(C#Cc2c(N)ncnc2N[C@@H](C)c2nc3cccc(Cl)c3c(=O)n2-c2ccccc2)c1` [Compound 150a, (S)-2-(1-((6-amino-5-((4-ethylpyridin-2-yl)ethynyl)pyrimidin-4-yl)amino)ethyl)-5-chloro-3-phenylquinazolin-4(3H)-one] has an IC50 (PI3Kγ; bound given in nM) of less than 0.1 µM, an IC50 (PI3Kα) greater than 1 µM and an IC50 (PI3Kδ) of less than 100 nM.
Compound `C[C@H](Nc1ncnc(N)c1C#Cc1ccc(F)cn1)c1nc2c(F)ccc(F)c2c(=O)n1-c1ccccc1` [Compound 4a, (S)-2-(1-(6-amino-5-((5-fluoropyridin-2-yl)ethynyl)pyrimidin-4-ylamino)ethyl)-5,8-difluoro-3-phenylquinazolin-4(3H)-one] has an IC50 (PI3Kγ; bound given in uM) greater than 1 µM, an IC50 (PI3Kα) greater than 1 µM and an IC50 (PI3Kδ) of less than 100 nM.
Work on `C[C@H](Nc1ncnc(N)c1C#Cc1cnccn1)c1nc2cccc(F)c2c(=O)n1-c1cccnc1` [Compound 115a, (S)-2-(1-((6-amino-5-(pyrazin-2-ylethynyl)pyrimidin-4-yl)amino)ethyl)-5-fluoro-3-(pyridin-3-yl)quinazolin-4(3H)-one] yielded an IC50 (PI3Kγ; bound given in uM) greater than 1 µM, an IC50 (PI3Kα) greater than 1 µM and an IC50 (PI3Kδ) of less than 100 nM.
With `C[C@H](Nc1ncnc(N)c1C#CC1CCCC1)c1nc2cccc(Cl)c2c(=O)n1-c1ccccc1` [Compound 144a, (S)-2-(1-((6-amino-5-(cyclopentylethynyl)pyrimidin-4-yl)amino)ethyl)-5-chloro-3-phenylquinazolin-4(3H)-one] the IC50 (PI3Kγ; bound given in uM) was greater than 1 µM, the IC50 (PI3Kα) was greater than 1 µM and the IC50 (PI3Kδ) was less than 100 nM.
`CC(=O)c1cccnc1C#Cc1c(N)ncnc1N[C@@H](C)c1nc2cccc(Cl)c2c(=O)n1-c1ccccc1` [Compound 152a, (S)-2-(1-((5-((3-acetylpyridin-2-yl)ethynyl)-6-aminopyrimidin-4-yl)amino)ethyl)-5-chloro-3-phenylquinazolin-4(3H)-one] showed an IC50 (PI3Kγ; bound given in uM) greater than 1 µM, an IC50 (PI3Kα) greater than 1 µM and an IC50 (PI3Kδ) of less than 100 nM.
For `COC(=O)c1ccnc(C#Cc2c(N)ncnc2N[C@@H](C)c2nc3cccc(Cl)c3c(=O)n2-c2ccccc2)c1` [Compound 158a, (S)-methyl 2-((4-amino-6-((1-(5-chloro-4-oxo-3-phenyl-3,4-dihydroquinazolin-2-yl)ethyl)amino)pyrimidin-5-yl)ethynyl)isonicotinate], the IC50 (PI3Kγ; bound given in uM) was greater than 1 µM, the IC50 (PI3Kα) was greater than 1 µM and the IC50 (PI3Kδ) was less than 100 nM.
With `C[C@H](Nc1ncnc(N)c1C#Cc1ccc(F)cn1)c1nc2cccc(Cl)c2c(=O)n1N1CCOCC1` [Compound 121a, (S)-2-(1-((6-amino-5-((5-fluoropyridin-2-yl)ethynyl)pyrimidin-4-yl)amino)ethyl)-5-chloro-3-morpholinoquinazolin-4(3H)-one] the IC50 (PI3Kγ; bound given in uM) was greater than 1 µM, the IC50 (PI3Kα) was greater than 1 µM and the IC50 (PI3Kδ) was less than 100 nM.
In the case of `C[C@H](Nc1ncnc(N)c1C#Cc1ncccn1)c1nc2cccc(F)c2c(=O)n1-c1ccccc1` [Compound 109a, 2-(1-((6-amino-5-(pyrimidin-2-ylethynyl)pyrimidin-4-yl)amino)ethyl)-5-fluoro-3-phenylquinazolin-4(3H)-one], the IC50 (PI3Kγ; bound given in uM) is reported as greater than 1 µM, the IC50 (PI3Kα) is reported as greater than 1 µM and the IC50 (PI3Kδ) is reported as less than 100 nM.
`Cc1cccc2nc([C@H](C)Nc3ncnc(N)c3C#Cc3cnccn3)n(-c3cccnc3)c(=O)c12` [Compound 119a, (S)-2-(1-((6-amino-5-(pyrazin-2-ylethynyl)pyrimidin-4-yl)amino)ethyl)-5-methyl-3-(pyridin-3-yl)quinazolin-4(3H)-one] gave an IC50 (PI3Kγ; bound given in uM) greater than 1 µM, an IC50 (PI3Kα) greater than 1 µM and an IC50 (PI3Kδ) of less than 100 nM.
Work on `Cc1ccc(F)c2c(=O)n(-c3ccccc3)c([C@H](C)Nc3ncnc(N)c3C#Cc3ccc(F)cn3)nc12` [Compound 69a, (S)-2-(1-((6-amino-5-((5-fluoropyridin-2-yl)ethynyl)pyrimidin-4-yl)amino)ethyl)-5-fluoro-8-methyl-3-phenylquinazolin-4(3H)-one] yielded an IC50 (PI3Kγ; bound given in uM) greater than 1 µM, an IC50 (PI3Kα) greater than 1 µM and an IC50 (PI3Kδ) of less than 100 nM.
Compound `C[C@H](Nc1ncnc(N)c1C#Cc1cnccn1)c1nc2cccc(Cl)c2c(=O)n1-c1cccnc1` [Compound 118a, (S)-2-(1-((6-amino-5-(pyrazin-2-ylethynyl)pyrimidin-4-yl)amino)ethyl)-5-chloro-3-(pyridin-3-yl)quinazolin-4(3H)-one] has an IC50 (PI3Kγ; bound given in uM) greater than 1 µM, an IC50 (PI3Kα) greater than 1 µM and an IC50 (PI3Kδ) of less than 100 nM.
`C[C@H](Nc1ncnc(N)c1C#Cc1ccc(F)cn1)c1nc2c(Cl)ccc(Cl)c2c(=O)n1-c1ccccc1` [Compound 11a, (S)-2-(1-(6-amino-5-((5-fluoropyridin-2-yl)ethynyl)pyrimidin-4-ylamino)ethyl)-5,8-dichloro-3-phenylquinazolin-4(3H)-one] gave an IC50 (PI3Kγ; bound given in uM) greater than 1 µM, an IC50 (PI3Kα) greater than 1 µM and an IC50 (PI3Kδ) of less than 100 nM.
